Assay results published in US9737545B2 (MERCK SHARP & DOHME CORP., priority 2013, dated 2017).

How the values were obtained:
HIV-1 (H9IIIB strain) = experiment: Antiviral Assays in Cell Culture (Spread), acute infection assay; assay type: cell-based; settings: Human immunodeficiency virus 1, T-lymphoid, read-out: Viking 50% (nM)
Source text: Antiviral Assays in Cell Culture (“Spread”)
Acute Infection Assay (“Spread”) data were generated using HIV-1 (H9IIIB strain) infection of MT-4 human T-lymphoid cells in 10% FBS, and according to the methods disclosed by J. P. Vacca et al, “L-735,524: An orally bioavailable human immunodeficiency virus type 1 protease inhibitor,” Proc. Natl. Acad. Sci. USA, Vol. 91, pp. 4096-4100 (April 1994).

wildtype HIV-1 protease = target: T1, wildtype HIV-1 protease (Human immunodeficiency virus type 1 group M subtype B, UniProt P04585); experiment: Assay for Inhibition of Microbial Expressed HIV Protease (Pepcleav); assay type: biochemical
T1 construct: preincubated with the HIV-1 protease (wild type) enzyme in assay buffer; made in house; host or cells: Escherichia coli
How it was run: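 E. coli-expressed wildtype protease (20 pM final) preincubated with inhibitor 30 min at room temperature in 50 mM sodium acetate pH 5.5, 100 mM NaCl, 0.1% BSA. Reaction with 400 μM peptide substrate ran 1 h at 30° C. Inhibition derived from LC-MS/MS (MRM) product peak area.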

Cc1cc2nc([C@@H]3CO[C@H](CCc4c(F)cncc4NC(=O)C[C@@H](c4ccc(F)cc4)c4ccncc4F)CN3)[nH]c2cc1C [Example 63, (3S)—N-(4-{2-[(2R,5R)-5-(5,6-dimethyl-1H-benzimidazol-2-yl)morpholin-2-yl]ethyl}-5-fluoropyridin-3-yl)-3-(4-fluorophenyl)-3-(3-fluoropyridin-4-yl)propanamide]
EC50 (HIV-1 (H9IIIB strain)): 63 nM

COC(=O)N[C@H](C(=O)Nc1cncc(F)c1CC[C@@H]1CN[C@H](c2nc3ccccc3[nH]2)CO1)C(c1ccc(F)cc1)c1ccc(F)cc1 [Example 72, N-(4-{2-[(2R,5R)-5-(1H-benzimidazol-2-yl)morpholin-2-yl]ethyl}-5-fluoropyridin-3-yl)-4-fluoro-β-(4-fluorophenyl)-Nα-(methoxycarbonyl)-L-phenylalaninamide]
IC50 (wildtype HIV-1 protease): 0.01 nM

O=C(C[C@@H](c1ccc(F)cc1)c1ccncc1F)Nc1cccc(F)c1CC[C@@H]1CN[C@H](c2nc3ccccc3[nH]2)CO1 [Example 73, (3S)—N-(2-{2-[(2R,5R)-5-(1H-benzimidazol-2-yl)morpholin-2-yl]ethyl}-3-fluorophenyl)-3-(4-fluorophenyl)-3-(3-fluoropyridin-4-yl)propanamide]
IC50 (wildtype HIV-1 protease): 0.01 nM

N[C@H](C(=O)Nc1cncc(F)c1CC[C@@H]1CN[C@H](c2nc3cc(F)c(F)cc3[nH]2)CO1)C(c1ccc(F)cc1)c1ccc(F)cc1 [Example 75, N-(4-{2-[(2R,5R)-5-(5,6-difluoro-1H-benzimidazol-2-yl)morpholin-2-yl]ethyl}-5-fluoropyridin-3-yl)-4-fluoro-β-(4-fluorophenyl)-L-phenylalaninamide]
IC50 (wildtype HIV-1 protease): 0.01 nM

COC(=O)N[C@H](C(=O)Nc1cncc(F)c1CC[C@@H]1CN[C@H](c2nc3cc(F)c(F)cc3[nH]2)CO1)C(c1ccc(F)cc1)c1ccc(F)cc1 [Example 76, N-(4-{2-[(2R,5R)-5-(5,6-difluoro-1H-benzimidazol-2-yl)morpholin-2-yl]ethyl}-5-fluoropyridin-3-yl)-4-fluoro-β-(4-fluorophenyl)-Nα-(methoxycarbonyl)-L-phenylalaninamide]
IC50 (wildtype HIV-1 protease): 0.02 nM

COC(=O)N[C@H](C(=O)Nc1ccccc1CC[C@@H]1CN[C@H](c2nnn[nH]2)CO1)C(c1ccccc1)c1ccccc1 [Example 77, Nα-(methoxycarbonyl)-β-phenyl-N-(2-{2-[(2R,5R)-5-(1H-tetrazol-5-yl)morpholin-2-yl]ethyl}phenyl)-L-phenylalaninamide]
IC50 (wildtype HIV-1 protease): 3.5 nM

COC(=O)N[C@H](C(=O)Nc1ccccc1CC[C@@H]1CN[C@H](c2nnc(Cc3ccccc3)o2)CO1)C(c1ccccc1)c1ccccc1 [Example 78]
IC50 (wildtype HIV-1 protease): 62 nM

COC(=O)N[C@H](C(=O)Nc1ccccc1CC[C@@H]1CN[C@H](c2nnc(-c3ccc(F)cc3)o2)CO1)C(c1ccccc1)c1ccccc1 [Example 79]
IC50 (wildtype HIV-1 protease): 59 nM

COC(=O)N[C@H](C(=O)Nc1ccccc1CC[C@@H]1CN[C@H](c2nnc(C)o2)CO1)C(c1ccccc1)c1ccccc1 [Example 80]
IC50 (wildtype HIV-1 protease): 220 nM

COC(=O)N[C@H](C(=O)Nc1ccccc1CC[C@@H]1CN[C@H](c2nnc(Cc3ccccc3)[nH]2)CO1)C(c1ccccc1)c1ccccc1 [Example 81]
IC50 (wildtype HIV-1 protease): 2.8 nM

COC(=O)N[C@H](C(=O)Nc1ccccc1CC[C@@H]1CN[C@H](c2nnco2)CO1)C(c1ccccc1)c1ccccc1 [Example 82]
IC50 (wildtype HIV-1 protease): 280 nM

COC(=O)N[C@H](C(=O)Nc1ccccc1CC[C@@H]1CN[C@H](c2csc(C)n2)CO1)C(c1ccccc1)c1ccccc1 [Example 83]
IC50 (wildtype HIV-1 protease): 89 nM

COC(=O)N[C@H](C(=O)Nc1ccccc1CC[C@@H]1CN[C@H](c2csc(Cc3ccccc3)n2)CO1)C(c1ccccc1)c1ccccc1 [Example 84]
IC50 (wildtype HIV-1 protease): 150 nM

COC(=O)N[C@H](C(=O)Nc1ccccc1CC[C@@H]1CN[C@H](c2nc3cc(Cl)c(Cl)cc3[nH]2)CO1)C(c1ccccc1)c1ccccc1 [Example 85]
IC50 (wildtype HIV-1 protease): 0.4 nM

COC(=O)N[C@H](C(=O)Nc1ccccc1CC[C@@H]1CN[C@H](c2ncc[nH]2)CO1)C(c1ccccc1)c1ccccc1 [Example 86]
IC50 (wildtype HIV-1 protease): 1.8 nM

COC(=O)N[C@H](C(=O)Nc1ccccc1CC[C@@H]1CN[C@H](c2ncc[nH]2)[C@@H](CSc2nnc(-c3ccncc3)o2)O1)C(c1ccccc1)c1ccccc1 [Example 87, N-(2-{2-[(2R,5R)-(1H-imidazol-2-yl)-6-{[(5-pyridin 4-yl-1,3,4-oxadiazol-2-yl)sulfanyl]methyl}morpholin-2-yl]ethyl}phenyl)-Nalpha-(methoxycarbonyl)-β-phenyl-L-phenylalaninamide]
IC50 (wildtype HIV-1 protease): 0.6 nM

COC(=O)N[C@H](C(=O)Nc1ccccc1CC[C@@H]1CN[C@H](c2cn(C)c(=O)[nH]2)CO1)C(c1ccccc1)c1ccccc1 [Example 88]
IC50 (wildtype HIV-1 protease): 310 nM

COC(=O)N[C@H](C(=O)Nc1ccccc1CC[C@@H]1CN[C@H](c2nc3ccc(O)nc3[nH]2)CO1)C(c1ccccc1)c1ccccc1 [Example 89]
IC50 (wildtype HIV-1 protease): 150 nM

COC(=O)N[C@H](C(=O)Nc1ccccc1CC[C@@H]1CN[C@H](c2[nH]c3ccccc3c2C=[N+](C)C)CO1)C(c1ccccc1)c1ccccc1 [Example 90, N-[(2-{(3R,6R)-6-[2-(2-{[N-(methoxycarbonyl)-β-phenyl-L-phenylalanyl]amino}phenyl)ethyl]morpholin-3-yl}-1H-indol-3-yl)methylidene]-N-methylmethanaminium]
IC50 (wildtype HIV-1 protease): 68 nM

Cc1cc2nc([C@@H]3CO[C@H](CCc4c(F)cncc4NC(=O)[C@@H](N)C(c4ccc(F)cc4)c4ccc(F)cc4)CN3)[nH]c2cc1C [Example 92, N-(4-{2-[(2R,5R)-5-(5,6-dimethyl-1H-benzimidazol 2-yl)morpholin-2-yl]ethyl}-5-fluoropyridin-3-yl)-4-fluoro-β-(4-fluorophenyl)-L-phenylalaninamide]
IC50 (wildtype HIV-1 protease): 0.06 nM

N[C@H](C(=O)Nc1cncc(F)c1CC[C@@H]1CN[C@H](c2nc3cc(F)c(F)cc3[nH]2)CO1)C(c1ccc(F)cc1)c1ccc(F)cc1 [Example 93, N-(4-{2-[(2R,5R)-5-(5,6-difluoro-1H-benzimidazol-2-yl)morpholin-2-yl]ethyl}-5-fluoropyridin-3-yl)-4-fluoro-β-(4-fluorophenyl)-L-phenylalaninamide]
IC50 (wildtype HIV-1 protease): 0.02 nM

N[C@H](C(=O)Nc1cccc(F)c1OC[C@@H]1CN[C@H](c2nc3ccccc3[nH]2)CO1)C(c1ccccc1)c1ccccc1 [Example 94, N-(2-{[(2S,5R)-5-(1H-benzimidazol-2-yl)morpholin-2-yl]methoxy}-3-fluorophenyl)-β-phenyl-L-phenylalaninamide]
IC50 (wildtype HIV-1 protease): 0.22 nM

COC(=O)N[C@H](C(=O)Nc1cncc(F)c1CC[C@@H]1CN[C@H](c2nc3cc(C)c(C)cc3[nH]2)CO1)C(c1ccc(F)cc1)c1ccc(F)cc1 [Example 95, N-(4-{2-[(2R,5R)-5-(5,6-dimethyl-1H-benzimidazol-2-yl)morpholin-2-yl]ethyl}-5-fluoropyridin-3-yl)-4-fluoro-β-(4-fluorophenyl)-Nalpha-(methoxycarbonyl)-L-phenylalaninamide]
IC50 (wildtype HIV-1 protease): 0.03 nM

O=C(CC(c1ccc(F)cc1)c1ccc(F)cc1)Nc1cccc(F)c1CC[C@@H]1CN[C@H](c2nc3ccccc3[nH]2)CO1 [Example 97, N-(2-{2-[(2R,5R)-5-(1H-benzimidazol-2-yl)morpholin-2-yl]ethyl}-3-fluorophenyl)-3,3-bis(4-fluorophenyl) propanamide]
IC50 (wildtype HIV-1 protease): 0.04 nM

O=C(C[C@@H](c1ccc(F)cc1)c1ccc(F)cc1F)Nc1cccc(F)c1CC[C@@H]1CN[C@H](c2nc3ccccc3[nH]2)CO1 [Example 98, (3S)-N-(2-{2-[(2R,5R)-5-(1H-benzimidazol-2-yl)morpholin-2-yl]ethyl}-3-fluorophenyl)-3-(2,4-difluorophenyl)-3-(4-fluorophenyl) propanamide]
IC50 (wildtype HIV-1 protease): 0.05 nM

O=C(CCc1ccccc1Cl)Nc1cccc(F)c1CC[C@@H]1CN[C@H](c2nc3ccccc3[nH]2)CO1 [Example 99, N-(2-{2-[(2R,5R)-5-(1H-benzimidazol-2-yl)morpholin-2-yl]ethyl}-3-fluorophenyl)-3-(2-chlorophenyl) propanamide]
IC50 (wildtype HIV-1 protease): 11 nM

O=C(CC(c1ccccc1)c1ccccc1)Nc1cccc(F)c1CC[C@@H]1CN[C@H](c2nc3ccccc3[nH]2)CO1 [Example 100, N-(2-{2-[(2R,5R)-5-(1H-benzimidazol-2-yl)morpholin-2-yl]ethyl}-3-fluorophenyl)-3,3-diphenylpropanamide]
IC50 (wildtype HIV-1 protease): 0.65 nM

N[C@H](C(=O)Nc1cncc(F)c1CC[C@@H]1CN[C@H](c2nc3cc(C(=O)NCC(F)(F)F)ccc3[nH]2)CO1)C(c1ccccc1)c1ccccc1 [Example 101, N-(5-fluoro-4-{2-[(2R,5R)-5-{5-[(2,2,2-trifluoroethyl)carbamoyl]-1H-benzimidazol-2-yl}morpholin-2-yl]ethyl}pyridin-3-yl)-β-phenyl-L-phenylalaninamide]
IC50 (wildtype HIV-1 protease): 26 nM

N[C@@H](Cc1ccccc1Cl)C(=O)Nc1cccc(F)c1CC[C@@H]1CN[C@H](c2nc3ccccc3[nH]2)CO1 [Example 102, N-(2-{2-[(2R,5R)-5-(1H-benzimidazol-2-yl)morpholin-2-yl]ethyl}-3-fluorophenyl)-2-chloro-L-phenylalaninamide]
IC50 (wildtype HIV-1 protease): 17 nM

O=C(COc1ccccc1Cl)Nc1cccc(F)c1CC[C@@H]1CN[C@H](c2nc3ccccc3[nH]2)CO1 [Example 103, N-(2-{2-[(2R,5R)-5-(1H-benzimidazol-2-yl)morpholin-2-yl]ethyl}-3-fluorophenyl)-2-(2-chlorophenoxy) acetamide]
IC50 (wildtype HIV-1 protease): 31 nM

Cc1cc2nc([C@@H]3CO[C@H](COc4c(F)cccc4NC(=O)C[C@@H](c4ccc(F)cc4)c4cc(F)cc(F)c4)CN3)[nH]c2cc1C [Example 104, (3S)-3-(3,5-difluorophenyl)-N-(2-{[(2S,5R)-5-(5,6-dimethyl-1H-benzimidazol-2-yl)morpholin-2-yl]methoxy}-3-fluorophenyl)-3-(4-fluorophenyl) propanamide]
IC50 (wildtype HIV-1 protease): 1.1 nM
